Source: US8138189B2, “Substituted benzene compounds as modulators of the glucocorticoid receptor” (Hoffman-La Roche Inc., priority 2009, dated 2012)

molecular target: T1, full length human recombinant glucocorticoid receptor (Homo sapiens, UniProt P04150); test: Glucocorticoid Receptor Binding Assay (fluorescence polarization competitor assay, Fluormone GS Far Red tracer)
T1 construct: partially purified full length human recombinant glucocorticoid receptor; purchased Panvera/Invitrogen PV4302
T1 sequence (P04150 1-777): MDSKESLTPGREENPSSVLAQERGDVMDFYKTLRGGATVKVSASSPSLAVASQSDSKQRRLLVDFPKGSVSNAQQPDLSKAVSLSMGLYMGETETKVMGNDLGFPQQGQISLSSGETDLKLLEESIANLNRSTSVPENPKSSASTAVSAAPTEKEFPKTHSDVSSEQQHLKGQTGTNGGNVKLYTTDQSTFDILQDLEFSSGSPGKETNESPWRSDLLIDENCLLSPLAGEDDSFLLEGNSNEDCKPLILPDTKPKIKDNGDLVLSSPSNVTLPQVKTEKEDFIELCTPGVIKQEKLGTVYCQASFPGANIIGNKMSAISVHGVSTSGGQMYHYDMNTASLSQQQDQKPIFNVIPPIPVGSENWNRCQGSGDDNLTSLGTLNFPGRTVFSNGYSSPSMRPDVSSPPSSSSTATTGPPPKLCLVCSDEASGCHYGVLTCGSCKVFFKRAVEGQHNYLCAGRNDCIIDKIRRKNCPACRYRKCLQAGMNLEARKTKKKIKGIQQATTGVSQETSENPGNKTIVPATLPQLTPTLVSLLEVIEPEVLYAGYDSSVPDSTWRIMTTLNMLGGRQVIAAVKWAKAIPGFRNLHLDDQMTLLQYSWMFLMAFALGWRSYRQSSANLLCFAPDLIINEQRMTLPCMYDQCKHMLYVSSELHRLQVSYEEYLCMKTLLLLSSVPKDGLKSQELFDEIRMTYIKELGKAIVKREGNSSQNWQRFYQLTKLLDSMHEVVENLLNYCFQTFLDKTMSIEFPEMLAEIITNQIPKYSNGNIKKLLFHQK
Description: Glucocorticoid Receptor Binding Assay
The ability of the substances to bind to the glucocorticoid receptor was determined with the help of a commercial Glucocorticoid Receptor Competitor Assay far red kit provided by Panvera/Invitrogen (PV4302). This kit is used as provided by the supplier. It contains some partially purified full length human recombinant glucocorticoid receptor, a coactivator related GR stabilizing peptide, a tight-binding fluorescent GR ligand Fluormone™ GS Far Red as labeled tracer and a screening buffer. All reagents are prepared and the assay is run according to the recommendations of the kit manufacturer.
Briefly, the GR stabilizing peptide and the human recombinant glucocorticoid receptor are both diluted with the screening buffer (pH 7.4) and are gently mixed (no vortexing) just before the assay and kept on ice until use. The fluorescent-labeled ligand is also diluted with the screening buffer just before the assay and kept on ice until use. The substances to test are pre-diluted in pure DMSO then some water is added to get an intermediate 4.2% DMSO stock solution. Ten microliter of the intermediate stock solution is gently mixed with 5 μl of diluted fluorescent-labeled ligand and 5 μl of diluted human recombinant glucocorticoid receptor in a 384-well plate (low volume, ultraclear, glass plate from Greiner ref 788896). The plate is centrifuged, sealed and incubated for 3 hours at 22° C. in the dark. The polarized fluorescence is measured with a Zeiss-HTS reader or any equivalent equipment (610-660 nm).
All compounds were tested to determine IC50 in a serial dilution experiment. The concentration at which 50% inhibition of the fluorescent GR ligand Fluormone™ GS Far Red is obtained (the IC50) is determined after fitting with a sigmoidal dose-response model of a plot of the logarithm of the concentration versus percent inhibition measured for the different concentrations. Ki's were calculated from IC50 based on Cheng-Prusoff equation (Cheng, Y, Prusoff, W H (1973) Biochem Pharmacol 22, 3099-3108): Ki=IC50/[1+D/Kd] wherein D is the concentration of the fluorescent ligand and Kd is the binding constant for the fluorescent ligand binding to the receptor under the conditions used in the competition experiment.

`CCOC(=O)c1ccc(COc2ccc([C@@H](C)[C@@](O)(c3cnc(C)cn3)C(F)(F)F)c(Cl)c2)cc1` (racemic) [Example 1, 4-{3-Chloro-4-[3,3,3-trifluoro-2-hydroxy-1-methyl-2-(5-methyl-pyrazin-2-yl)-propyl]-phenoxymethyl}-benzoic acid ethyl ester] and `COC(=O)Cc1ccc(COc2ccc([C@@H](C)[C@@](O)(c3cnc(C)cn3)C(F)(F)F)c(Cl)c2)cc1` (racemic) [Example 11, (4-{3-Chloro-4-[3,3,3-trifluoro-2-hydroxy-1-methyl-2-(5-methyl-pyrazin-2-yl)-propyl]-phenoxymethyl}-phenyl)-acetic acid methyl ester] are within 1.5-fold of each other in Ki: 76.6 nM for the first, 84 nM for the second.

Compared with `COC(=O)c1ccc(COc2ccc([C@@H](C)[C@@](O)(c3cnc(C)cn3)C(F)(F)F)c(Cl)c2)c(OC)c1` (racemic) [Example 15, 4-{3-Chloro-4-[3,3,3-trifluoro-2-hydroxy-1-methyl-2-(5-methyl-pyrazin-2-yl)-propyl]-phenoxymethyl}-3-methoxy-benzoic acid methyl ester], `COC(=O)c1ccc(COc2ccc([C@@H](C)[C@@](O)(c3ccnc(Cl)c3)C(F)(F)F)c(Cl)c2)c(OC)c1` (relative stereo) [Example 21, 4-{3-Chloro-4-[2-(2-chloro-pyridin-4-yl)-3,3,3-trifluoro-2-hydroxy-1-methyl-propyl]-phenoxymethyl}-3-methoxy-benzoic acid methyl ester] is 9.6-fold lower in Ki: 72.3 nM for the first, 7.5 nM for the second. The second binds more tightly here.

Compared with `Cc1cc([C@@](O)([C@@H](C)c2ccc(Oc3ccc(C(=O)O)c(F)c3)cc2Cl)C(F)(F)F)cn(C)c1=O` (racemic) [Example 204, 4-{3-Chloro-4-[2-(1,5-dimethyl-6-oxo-1,6-dihydro-pyridin-3-yl)-3,3,3-trifluoro-2-hydroxy-1-methyl-propyl]-phenoxy}-2-fluoro-benzoic acid], `Cc1cc([C@@](O)([C@@H](C)c2ccc(Oc3ccc(C(=O)O)cc3Cl)cc2Cl)C(F)(F)F)cn(C)c1=O` (racemic) [Example 215, 3-Chloro-4-{3-chloro-4-[2-(1,5-dimethyl-6-oxo-1,6-dihydro-pyridin-3-yl)-3,3,3-trifluoro-2-hydroxy-1-methyl-propyl]-phenoxy}-benzoic acid] is 2-fold lower in Ki: 0.4 nM for the first, 0.2 nM for the second.

Going from `Cc1cc([C@@](O)([C@@H](C)c2ccc(Oc3ccc(C(=O)O)cn3)cc2Cl)C(F)(F)F)cn(C)c1=O` (racemic) [Example 218, 6-{3-Chloro-4-[2-(1,5-dimethyl-6-oxo-1,6-dihydro-pyridin-3-yl)-3,3,3-trifluoro-2-hydroxy-1-methyl-propyl]-phenoxy}-nicotinic acid] to `C[C@H](c1cc(Oc2ccc(C(=O)O)cn2)ccc1Cl)[C@@](O)(c1ccnc(Cl)c1)C(F)(F)F` (relative stereo) [Example 133, 6-{4-Chloro-3-[2-(2-chloro-pyridin-4-yl)-3,3,3-trifluoro-2-hydroxy-1-methyl-propyl]-phenoxy}-nicotinic acid], the Ki rises from 1.4 nM to 207 nM (150-fold).

Going from `COC(=O)Cc1ccc(COc2ccc([C@@H](C)[C@@](O)(c3ccnc(Cl)c3)C(F)(F)F)c(Cl)c2)cc1` (relative stereo) [Example 23, (4-{3-Chloro-4-[2-(2-chloro-pyridin-4-yl)-3,3,3-trifluoro-2-hydroxy-1-methyl-propyl]-phenoxymethyl}-phenyl)-acetic acid methyl ester] to `COC(=O)Cc1ccc(NC(=O)c2ccc([C@@H](C)[C@@](O)(c3ccnc(Cl)c3)C(F)(F)F)c(Cl)c2)cc1` (relative stereo) [Example 38, (4-{3-Chloro-4-[2-(2-chloro-pyridin-4-yl)-3,3,3-trifluoro-2-hydroxy-1-methyl-propyl]-benzoylamino}-phenyl)-acetic acid methyl ester], the Ki rises from 13.3 nM to 155 nM (12-fold).

`COC(=O)c1ccc(N(C)C(=O)c2ccc([C@@H](C)[C@@](O)(c3ccnc(Cl)c3)C(F)(F)F)c(Cl)c2)cc1` (relative stereo) [Example 28, 4-({3-Chloro-4-[-2-(2-chloro-pyridin-4-yl)-3,3,3-trifluoro-2-hydroxy-1-methyl-propyl]-benzoyl}-methyl-amino)-benzoic acid methyl ester] and `COC(=O)c1ccc(CNC(=O)c2ccc([C@@H](C)[C@@](O)(c3ccnc(Cl)c3)C(F)(F)F)c(Cl)c2)cc1` (relative stereo) [Example 36, 4-({3-Chloro-4-[2-(2-chloro-pyridin-4-yl)-3,3,3-trifluoro-2-hydroxy-1-methyl-propyl]-benzoylamino}-methyl)-benzoic acid methyl ester] are within 1.5-fold of each other in Ki: 114 nM for the first, 117 nM for the second.

Going from `COC(=O)c1cccc(NC(=O)c2ccc([C@@H](C)[C@@](O)(c3ccnc(Cl)c3)C(F)(F)F)c(Cl)c2)c1` (relative stereo) [Example 40, 3-{3-Chloro-4-[2-(2-chloro-pyridin-4-yl)-3,3,3-trifluoro-2-hydroxy-1-methyl-propyl]-benzoylamino}-benzoic acid methyl ester] to `C[C@H](c1ccc(C(=O)Nc2cccc(C(=O)O)n2)cc1Cl)[C@@](O)(c1ccnc(Cl)c1)C(F)(F)F` (relative stereo) [Example 44, 6-{3-Chloro-4-[2-(2-chloro-pyridin-4-yl)-3,3,3-trifluoro-2-hydroxy-1-methyl-propyl]-benzoylamino}-pyridine-2-carboxylic acid], the Ki rises from 121 nM to 228 nM (1.9-fold). The first binds more tightly here.

First: CCOC(=O)c1noc(-c2ccc([C@@H](C)[C@@](O)(c3ccnc(Cl)c3)C(F)(F)F)c(Cl)c2)n1 (relative stereo) [Example 47, 5-{3-Chloro-4-[2-(2-chloro-pyridin-4-yl)-3,3,3-trifluoro-2-hydroxy-1-methyl-propyl]-phenyl}-[1,2,4]oxadiazole-3-carboxylic acid ethyl ester]
Second: COC(=O)c1ccc(-c2ccc([C@@H](C)[C@@](O)(c3ccnc(Cl)c3)C(F)(F)F)c(Cl)c2)cc1F (relative stereo) [Example 53, 3′-Chloro-4′-[2-(2-chloro-pyridin-4-yl)-3,3,3-trifluoro-2-hydroxy-1-methyl-propyl]-3-fluoro-biphenyl-4-carboxylic acid methyl ester]
The Ki of the first is 3.2-fold higher: 47.1 nM for the first, 14.9 nM for the second.

Going from `C[C@H](c1ccc(-c2ccc(C(=O)O)cc2)cc1Cl)[C@@](O)(c1ccnc(Cl)c1)C(F)(F)F` (relative stereo) [Example 50, 3′-Chloro-4′-[2-(2-chloro-pyridin-4-yl)-3,3,3-trifluoro-2-hydroxy-1-methyl-propyl]-biphenyl-4-carboxylic acid] to `C[C@H](c1ccc(COc2ccc(C(=O)O)cn2)cc1Cl)[C@@](O)(c1ccnc(Cl)c1)C(F)(F)F` (relative stereo) [Example 127, 6-{3-Chloro-4-[2-(2-chloro-pyridin-4-yl)-3,3,3-trifluoro-2-hydroxy-1-methyl-propyl]-benzyloxy}-nicotinic acid], the Ki falls from 48.5 nM to 5.5 nM (8.8-fold).

Going from `C[C@H](c1cc(Oc2ncc(C(=O)O)cn2)ccc1Cl)[C@@](O)(c1ccnc(Cl)c1)C(F)(F)F` (relative stereo) [Example 135, 2-{4-Chloro-3-[2-(2-chloro-pyridin-4-yl)-3,3,3-trifluoro-2-hydroxy-1-methyl-propyl]-phenoxy}-pyrimidine-5-carboxylic acid] to `C[C@@H](c1ccc(OCc2ccc(CC(=O)O)cc2)cc1Cl)[C@](O)(c1cnc2ccccc2c1)C(F)(F)F` (relative stereo) [Example 145, {4-[3-Chloro-4-(3,3,3-trifluoro-2-hydroxy-1-methyl-2-quinolin-3-yl-propyl)-phenoxymethyl]-phenyl}-acetic acid], the Ki falls from 253 nM to 1.9 nM (130-fold).
